Experimental data reported in US20230337658A1, “COMPOSITIONS AND METHODS FOR ENHANCING SPERM CELL QUALITY” (ABS Global, Inc., priority 2022, published 2023).
Structures can show the parent of a compound that is named as a salt.

Key:
[1] = test system: sexed semen samples; assay: Cellular function of sexed semen samples (mitochondrial membrane potential, motility); type: cell-based; settings: sexed semen samples treated
[2] = test system: sperm cells; assay: Staining sperm cells with Hoechst dye before sexing; type: cell-based; settings: present during staining with Hoechst dye
Experimental: (§1) Sample Preparation for Sperm Sexing: A stained sample was prepared at room temperature that contained 200 M/mL sperm cells in 0.06 mg/mL Hoechst 33342 diluted to final volume in Stain TALP with Magnetic Beads with (+clofilium) or without (control) such that clofilium would be at a final concentration of 5 μM in the final stained sample volume. The sample was then incubated in a 37° C. water bath for 45 minutes. After 45 minutes Red Stain TALP was added to the stained sample in a 2:1 v/v ratio. The sample+Red TALP was then thoroughly mixed using inversion, filtered using tube top 20 μm Partec filters (Partec#04-0042-2315), and aliquoted into round bottom 5 mL tubes.
Sexing Cytometer Metrics: The stained, filtered sample was then run on proprietary sexing cytometers. The sample throughput was adjusted to 23,000 cells/sec and the detection and kill lasers were focused. To confirm proper laser focus, kill count assessments were performed before collecting sex skewed sample. A successful kill count has a population that is ≥75% dead and ≥95% sliced with at least 200 cells being counted. If an instrument could not achieve the above metrics, the instrument was not used to collect sex skewed semen. After a successful kill count, a gate was placed to collect the X chromosome cells, which is the cell population with the brighter Hoechst 33342 fluorescence as measured with a 355 nm wavelength excitation laser. Cytometer performance metrics were collected 15 minutes after instrument set up, and 15 minutes after the placement of the last sample collection tube, including the height of the Y-peak, the height of the X-peak, the height of the trough from the histogram of events per emitted fluorescent intensity, gated %, and dead %.

[3] = test system: sperm cells; assay: Sexing cytometer metrics: eligible cells, skew; type: cell-based, bovine; settings: 5 μM, n=10 sires
Experimental: as §1
Sexing Cytometer Metrics: The stained, filtered sample was then run on proprietary sexing cytometers. The sample throughput was adjusted to 23,000 cells/sec and the detection and kill lasers were focused. To confirm proper laser focus, kill count assessments were performed before collecting sex skewed sample. A successful kill count has a population that is ≥75% dead and ≥95% sliced with at least 200 cells being counted. […] After a successful kill count, a gate was placed to collect the X chromosome cells, which is the cell population with the brighter Hoechst 33342 fluorescence as measured with a 355 nm wavelength excitation laser. […]

[4] = test system: sperm cells; assay: Pre-freeze and post-freeze motile cell quantification (CASA); type: cell-based, bovine; settings: 5 μM, n=10 sires, compared to SOP
Experimental: Sex Skewed Sample Collection and Processing: The sample was run to collect between 300 and 400 mL of sex skewed sample, the composition of which is approximately 17% TRIS A (Part 1) buffer, 80% sheath fluid, and 2% cell sample. The sample was collected in 50 mL conical tubes containing 5 mLs of TRIS A (Part 1), and each tube was filled to a max volume of 30 mL before being replaced. After the requisite total volume was collected, sexed sperm was centrifuged at room temperature at 2400×g for 10 minutes. The supernatant was aspirated and discarded to reach a 1 mL pellet volume. 144 μL of TRIS A (Part 1)/GTLS mixture containing 40 μM clofilium or no clofilium (control) was added to each pellet after resuspension. The tubes were then placed in beakers filled with 150 mL of room temperature water, to prevent cold shock, and were then transferred to a 4° C. cold room. […] The concentration of progressively motile cells was determined using the Hamilton Thorne IVOS II with […] […] After which 20 μLs of sample is added to 20 μLs of QC diluent, gently vortexed for 5 seconds, and read on the CASA fluorescent settings described above. The remainder of the straw volume is spread on a blood agar plate and left at 37° C. for 24 hours before bacterial colonies are counted. […]

[5] = test system: slaughterhouse oocytes fertilized with sexed semen; assay: In vitro fertilization (IVF) with sexed semen: embryo cleavage and blastocyst formation; type: cell-based, bovine
Excerpt: IVF Testable Unit Generation Design: This study utilizes sires from two breeds, Holstein and Jersey. The study design includes one ejaculate collection from 10 unique sires to generate sexed semen units in a split batch design with clofilium and a paired control.
Final breed tally of the collections were 7 Holsteins and 3 Jersey sires. Ejaculates selected for use in this trial were processed following standard production procedures outlined in detail below. Insemination doses, freeze canes, and all associated documentation were blind labeled during the incoming quality check. This was to prevent technician bias on quality control assessments after freeze-thaw as well as during the IVF outcome quantitation assessments.
After processing, the sexed semen was packaged and frozen during a regularly scheduled production freeze following standard operating procedures (SOPs). Within one week of unit generation, the outgoing quality control measurements were performed by a trained research technician. Post-thaw motile concentration and the presence/absence of bacterial contamination were completed. Insemination doses had to pass standard production outgoing quality control parameters to be utilized for the IVF trial.
Each facility received the two treatment groups for each individual ejaculate. The two treatments from each split ejaculate were used concurrently to fertilize oocytes from the same pooled batch of slaughterhouse oocytes.
Trained IVF technicians performed the outlined fertilizations. Day 2 cleavage rate, Day 7 and 8 blastocyst rates will be recorded, as well as polyspermy post-fertilization.
Oocyte prep: Four well fertilization plates are prepared by filling all 4 wells with 400 μL of BO-IVF (MOFA Verona, Wis.) and equilibrated in a 37° C. 5% CO2 for at least 1 hour. […]
Semen prep: Three insemination straws per treatment group are thawed at 37° C. for 45 seconds. […] A 5 μL sample aliquot is added to 95 μLs 4% NaCl to immobilize the cells, and cell concentration is quantified using a hemocytometer. Cells with visible membrane damage are not counted towards cell density calculations. […]

CCCCCCC[N+](CC)(CC)CCCCc1ccc(Cl)cc1 [clofilium tosylate, N-[4-(4-chlorophenyl)butyl]-N,N-diethylheptan-1-aminium]
cellular function, as measured by mitochondrial membrane potential [1]: increased cellular function
cellular function, as measured by motility [1]: increased cellular function
eligibility (number of cells eligible for sexing) [2]: increase eligibility
resolution (separation of X- and Y-chromosome cell peaks in a histogram) [2]: increase resolution
sex skew [2]: increase
time required to achieve staining saturation [2]: reduce the time
Skew (percentage of X-chromosome bearing sperm cells) [3]: remains unaffected
percentage of eligible cells (live, sexed X chromosome bearing cells) ([3]; compared to SOP at start and end of the collection process, FIG. 4): increased eligible percent
number of straws obtained from a single sample catch tube (pre-freeze motile cell quantification) ([4]; post instrument processing, FIG. 5): improvement
motile cells (in millions) per insemination dose ([4]; post-freeze, FIGS. 6A, 6B): more motile cells
percentage of normalized cleaved embryos at day 2 ([5]; 5 μM throughout the sexing process, N=2 sires, normalized to the control process, FIG. 3A): improvement
percentage of day 7 blastocysts ([5]; 5 μM throughout the sexing process, N=2 sires, normalized to the control process, FIG. 3B): improvement
fertility of semen, as assessed by embryo cleavage and blastocyst formation post-IVF ([5]; included in the sexing process): improves fertility
